The experiment deals with HIV-1 protease (Human immunodeficiency virus type 1 group M subtype B, UniProt P04585). Put plainly: Biological assay for inhibition of microbial expressed viral protease (HIV-1 protease). It is filed as biochemical. The source says: Insofar as compounds of the invention are able to inhibit the replication of the HIV virus in human T-cells and furthermore, may be delivered orally to mammals, they are of evident clinical utility for the treatment of HIV infection. These tests are predictive of the compounds ability to inhibit HIV protease in vivo. We have measured the inhibition constants of each compound against HIV-1 protease using essentially the method described by M. W. Pennington et al., Peptides 1990, Gimet, E. and D. Andrew, Eds., Escom; Leiden, Netherlands (1990).
Biological Assay for Inhibition of Microbial Expressed Viral Protease
The inhibition constants against HIV-1 protease were measured using the method described by M. V. Toth and G. R. Marshall, Int. J. Peptide protein Res., 1990, 544. The method described M. W. Pennington et al., Peptides 1990, Gimet, E. and D. Andrew, Eds., Escom; Leiden, Netherlands (1990) may also be used. Inhibition is measured as IC50 in μM. The person of skill would accept these tests as predictive of the compounds' utility in vivo to treat HIV infected patients.
On to `Cc1c(O)cccc1C(=O)NC(Cc1ccccc1)C(O)C1SCCN1S(=O)(=O)c1ccc(F)cc1` (stereo not shown) [EP-001161], for which the concentration for half-maximal inhibition (IC50) was less than 5 µM.

With `CC(C)(C)OC(=O)NC(Cc1ccccc1)C(O)C1SCCN1S(=O)(=O)c1ccc([N+](=O)[O-])cc1` (stereo not shown) [EP-001157], the IC50 was less than 5 µM.

As to `O=C(NC(Cc1ccccc1)C(O)C1SCCN1S(=O)(=O)c1ccc(F)cc1)OC1CCOC1` (stereo not shown) [EP-001169], the IC50 is less than 5 µM.

In turn, `O=C(COc1ccccc1)NC(Cc1ccccc1)C(O)C1SCCN1S(=O)(=O)c1ccc(F)cc1` (stereo not shown) [EP-001163] gave a half-maximal inhibitory concentration (IC50) greater than 20 µM.

In the case of `CC(C)c1ccc(S(=O)(=O)N2CCSC2C(O)C(Cc2ccccc2)NC(=O)OC(C)(C)C)cc1` (stereo not shown) [EP-001159], the IC50 was in the range of 5 to 20 µM.

On to `CC(Oc1ccccc1)C(=O)NC(Cc1ccccc1)C(O)C1SCCN1S(=O)(=O)c1ccc(F)cc1` (stereo not shown) [EP-001164], for which the IC50 is greater than 20 µM.

The compound `Cc1c(O)cccc1C(=O)NC(Cc1ccccc1)C(O)C1SCCN1S(=O)(=O)c1ccc(N)cc1` (stereo not shown) [EP-001195] displayed an IC50 of less than 5 µM.

For `CC(C)(C)OC(=O)NC(Cc1ccccc1)C(O)C1SCCN1S(=O)(=O)c1cccc2cccnc12` (stereo not shown) [EP-001153], the IC50 lay within 5 to 20 µM.

As to `CC(C)(C)OC(=O)NC(Cc1ccccc1)C(O)C1SCCN1S(=O)(=O)c1ccc(OC(F)(F)F)cc1` (stereo not shown) [EP-001155], the IC50 was in the range of 5 to 20 µM.

As to `O=C(COc1cccc2ccccc12)NC(Cc1ccccc1)C(O)C1SCCN1S(=O)(=O)c1ccc(F)cc1` (stereo not shown) [EP-001165], the IC50 was greater than 20 µM.

On to `COCCOC(=O)NC(Cc1ccccc1)C(O)C1SCCN1S(=O)(=O)c1ccc(F)cc1` (stereo not shown) [EP-001184], for which the IC50 was less than 5 µM.

In turn, `Cc1cccc(C)c1OCC(=O)NC(Cc1ccccc1)C(O)C1SCCN1S(=O)(=O)c1ccc(F)cc1` (stereo not shown) [EP-001162] came in with an IC50 of less than 5 µM.

`O=C(Cc1ccccc1)NC(Cc1ccccc1)C(O)C1SCCN1S(=O)(=O)c1ccc(F)cc1` (stereo not shown) [EP-001171]: the IC50 was greater than 20 µM.

The compound `CC(C)(C)OC(=O)NC(Cc1ccccc1)C(O)C1SCCN1S(=O)(=O)c1ccc(N)cc1` (stereo not shown) [EP-001172] had an IC50 of less than 5 µM.

As to `CC(C)(C)OC(=O)NC(Cc1ccccc1)C(O)C1SCCN1S(=O)(=O)c1ccccc1` (stereo not shown) [EP-001156], the IC50 was less than 5 µM.

Take `O=C(COc1ccc2ccccc2c1)NC(Cc1ccccc1)C(O)C1SCCN1S(=O)(=O)c1ccc(F)cc1` (stereo not shown) [EP-001166]: the IC50 was greater than 20 µM.

For the origin of these results see patent US6673821B2, “Nitrogen heterocycle inhibitors of aspartyl protease” (Enanta Pharmaceuticals, Inc., priority 2001, dated 2004).
